Patent US20160257697A1, “THIOPHENE-SUBSTITUTED TETRACYCLIC COMPOUNDS AND METHODS OFUSE THEREOF FOR THE TREATMENT OF VIRAL DISEASES” (priority 2013, published 2016)
Like-named read-outs stand apart in the source and are kept apart here.

What was measured:
Assay in all cases: microbe, parasite or virus in culture
Assay type in all cases: cell-based, Hepatitis C virus (HCV)
[1] = system: HCV replicon 1A; details: Replicon Assay A
Summary of the method: (§1)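 Replicon cells incubated with compound for 3 days in medium with 5% FBS and 0.5% DMSO final. Replicon RNA measured in lysates by multiplex real-time RT-PCR (Neo set) against cyclophilin control, quantified from standard curves of Ct versus log ng replicon total RNA.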

[2] = system: HCV replicon 2B; details: Replicon Assay A
Summary of the method: as §1

[3] = system: HCV replicon 1AY93H; details: read-out: 1A Y93H IC50, Replicon Assay A
Summary of the method: as §1

[4] = system: HCV replicon 1B; details: Replicon Assay B
[5] = system: HCV replicon 1AQ30D; details: Replicon Assay B
[6] = Hepatitis C virus, read-out: 1A Q30D IC50 (nM), replicon 1AQ30D
[7] = read-out: 1A Q30D IC50, replicon 1AQ30D
[8] = read-out: 2B IC50, HCV replicon 2B
[9] = Hepatitis C virus, HCV replicon 1B
[10] = Hepatitis C virus, read-out: 1A Q30D IC50, HCV replicon 1A Q30D

COC(=O)N[C@H](C(=O)N1CCC[C@H]1c1ncc(-c2cc(F)c3c(c2)OC(c2cc(F)c(C4CC4)s2)n2c-3cc3cc(-c4cnc([C@@H]5CCCN5C(=O)[C@@H](NC(=O)OC)C(C)C)[nH]4)ccc32)[nH]1)C(C)C (single isomer, unassigned) [Compound 72]
IC50 ([1]; replicon 1A): 2.6 pM | IC50 ([2]; read-out: 2B IC50, replicon 2B): 0.089 nM | IC50 ([3]; replicon 1AY93H): 0.01 nM | IC50 ([4]; Hepatitis C virus, replicon 1B): 1.5 pM | IC50 [5, 6]: 0.78 nM

COC(=O)NC(C(=O)N1CCC[C@H]1c1ncc(-c2ccc3c(c2)cc2n3C(c3ccc(C4CC4)s3)Oc3cc(-c4cnc([C@@H]5CCCN5C(=O)[C@@H](NC(=O)OC)C(C)C)[nH]4)cc(F)c3-2)[nH]1)C1CCCCO1 (single isomer, unassigned) [Compound 340]
IC50 ([1]; Hepatitis C virus, replicon 1A): 1.1 pM | IC50 ([2]; read-out: 2B IC50, replicon 2B): 0.0212 nM | IC50 ([3]; replicon 1AY93H): 0.0207 nM | IC50 ([4]; Hepatitis C virus, replicon 1B): 2.5 pM | IC50 [5, 7]: 0.2 nM

COC(=O)NC(C(=O)N1CCC[C@H]1c1ncc(-c2cc(F)c3c(c2)OC(c2ccc(C4CC4)s2)n2c-3cc3cc(-c4cnc([C@@H]5CCCN5C(=O)C(NC(=O)OC)C(C)(C)F)[nH]4)ccc32)[nH]1)C(C)(C)F (single isomer, unassigned) [Compound 111]
IC50 ([1]; replicon 1A): 3.2 pM | IC50 ([2]; read-out: 2B IC50, replicon 2B): 0.038 nM | IC50 ([3]; replicon 1AY93H): 0.074 nM | IC50 ([4]; Hepatitis C virus, replicon 1B): 1.7 pM | IC50 [5, 6]: 0.13 nM

COC(=O)NC(C(=O)N1CCC[C@H]1c1ncc(-c2cc(F)c3c(c2)OC(c2ccc(C4CC4)s2)n2c-3cc3cc(-c4cnc([C@@H]5CCCN5C(=O)[C@@H](NC(=O)OC)C(C)C)[nH]4)ccc32)[nH]1)C1C[C@@H](C)O[C@@H](C)C1 (single isomer, unassigned) [Compound 186]
IC50 ([1]; replicon 1A): 1.9 pM | IC50 ([2]; Hepatitis C virus, read-out: 2B IC50 (nM), replicon 2B): 0.63 nM | IC50 ([3]; replicon 1AY93H): 0.53 nM | IC50 ([4]; Hepatitis C virus, replicon 1B): 2.1 pM | IC50 [5, 6]: 2.84 nM

COC(=O)NC(C(=O)N1CCC[C@H]1c1ncc(-c2ccc3c(c2)cc2n3C(c3ccc(C4CC4)s3)Oc3cc(-c4cnc([C@@H]5CCCN5C(=O)[C@@H](NC(=O)OC)C(C)C)[nH]4)cc(F)c3-2)[nH]1)C1CCCCO1 (single isomer, unassigned) [Compound 342]
IC50 ([1]; replicon 1A): 1.6 pM | IC50 ([2]; read-out: 2B IC50, replicon 2B): 0.166 nM | IC50 ([3]; replicon 1AY93H): 0.069 nM | IC50 ([4]; replicon 1B): 2.6 pM | IC50 [5, 7]: 1.07 nM

COC(=O)N[C@H](C(=O)N1CCC[C@H]1c1ncc(-c2cc(C)c3c(c2)OC(c2cc4c(s2)CCC4)n2c-3cc3cc(-c4cnc([C@@H]5CCCN5C(=O)[C@@H](NC(=O)OC)C5C[C@@H](C)O[C@@H](C)C5)[nH]4)ccc32)[nH]1)C(C)C (single isomer, unassigned) [Compound 548]
IC50 ([1]; HCV replicon 1A): 7.58 pM | IC50 [2, 8]: 0.0231 nM | IC50 ([3]; HCV replicon 1A Y93H): 0.0658 nM | IC50 [4, 9]: 9.68 pM | IC50 [5, 10]: 1.4 nM

COC(=O)NC(C(=O)N1[C@@H]2C[C@@H]2C[C@H]1c1ncc(-c2ccc3c(c2)cc2n3C(c3ccc(C4CC4)s3)Oc3cc(-c4cnc([C@@H]5CCCN5C(=O)[C@@H](NC(=O)OC)C(C)C)[nH]4)cc(F)c3-2)[nH]1)C1C[C@@H](C)O[C@@H](C)C1 (single isomer, unassigned) [Compound 272]
IC50 ([1]; replicon 1A): 2.7 pM | IC50 ([2]; read-out: 2B IC50, replicon 2B): 2.75 nM | IC50 ([3]; replicon 1AY93H): 1 nM | IC50 ([4]; replicon 1B): 3.3 pM | IC50 [5, 7]: 2.39 nM

COC(=O)N[C@H](C(=O)N1CCC[C@H]1c1ncc(-c2cc(F)c3c(c2)OC(c2ccc(C(F)(F)F)s2)n2c-3cc3cc(-c4cnc([C@@H]5CCCN5C(=O)[C@@H](NC(=O)OC)C5CCOCC5)[nH]4)ccc32)[nH]1)C(C)C (single isomer, unassigned) [Compound 654]
IC50 ([1]; Hepatitis C virus, HCV replicon 1A): 1.1 pM | IC50 [2, 8]: 0.0061 nM | IC50 ([3]; HCV replicon 1A Y93H): 0.0095 nM | IC50 [4, 9]: 2 pM | IC50 [5, 10]: 0.0839 nM

COC(=O)NC(C(=O)N1CCC[C@H]1c1ncc(-c2cc(F)c3c(c2)OC(c2ccc(C4CC4)s2)n2c-3cc3cc(-c4cnc([C@@H]5CCCN5C(=O)[C@@H](NC(=O)OC)C(C)C)[nH]4)ccc32)[nH]1)C1CCOC(C)(C)C1 (single isomer, unassigned) [Compound 215]
IC50 ([1]; replicon 1A): 3.1 pM | IC50 ([2]; read-out: 2B IC50, replicon 2B): 0.01 nM | IC50 ([3]; replicon 1AY93H): 0.005 nM | IC50 ([4]; replicon 1B): 3.2 pM | IC50 [5, 7]: 0.017 nM

COC(=O)NC(C(=O)N1CCC[C@H]1c1ncc(-c2ccc3c(c2)cc2n3C(c3cc4c(s3)CCC4)Oc3cc(-c4cnc([C@@H]5CCCN5C(=O)[C@@H](NC(=O)OC)C(C)C)[nH]4)cc(C)c3-2)[nH]1)C1CCOC(C)(C)C1 (single isomer, unassigned) [Compound 853]
IC50 ([1]; HCV replicon 1A): > 3.6 pM | IC50 [2, 8]: 0.011 nM | IC50 ([3]; HCV replicon 1A Y93H): 0.085 nM | IC50 ([4]; HCV replicon 1B): 4.2 pM | IC50 [5, 10]: 0.705 nM

CCc1ccc(C2Oc3cc(-c4cnc([C@@H]5CCCN5C(=O)C(NC(=O)OC)C5C[C@@H](C)O[C@@H](C)C5)[nH]4)cc(F)c3-c3cc4cc(-c5cnc([C@@H]6CCCN6C(=O)[C@@H](NC(=O)OC)C(C)C)[nH]5)ccc4n32)s1 (single isomer, unassigned) [Compound 156]
IC50 ([1]; replicon 1A): 2 pM | IC50 ([2]; read-out: 2B IC50, replicon 2B): 0.005 nM | IC50 ([3]; replicon 1AY93H): 0.005 nM | IC50 ([4]; Hepatitis C virus, replicon 1B): 1.8 pM | IC50 [5, 6]: 0.019 nM
